The nature of data set [1]: ELISA of antisera from mice immunized with sterol-containing liposomes. In kind it is in vivo, BALB/c mice. Here is the method:
Accordingly, the following study is designed to assess the immunogenicity of different cholesterol or sterol analogs for use in a vaccine to prevent hyper-cholesterolemia. Briefly summarized, several sterols such as cholesterol, vitamin D2, cholesteryl oleate, cholesteryl myristate, 4-cholesten-3-one, and phosphatidylcholesterol (17β-Linkage) and (3β-Linkage), are incorporated into liposomes containing DPMC (1.8), DMPG (0.2), Chol (1.5) (mol/mol) and lipid A (25 to 200 μg/mol, preferably 25 μg/mol phospholipid) so that the phospholipid concentration remains constant. These liposomes are inoculated into BALB/c mice i.p. at day 0 and day 14. Mice are bled at day 14 and day 21 and antibodies specific for the antigen are assessed by ELISA using the antigen itself or crystalline cholesterol.
Multilamellar vesicles (“MLV”) are produced by aliquotting DMPC:DMPG:Cholesterol, 9:1:7.5 (mol/mol), and lipid A at 25 to 200 μg/Imol phospholipid into a round bottom flask. The mixture is rotary evaporated, desiccated, and hydrated in sterile, deionized water. Lipids are lyophilized and reconstituted in PBS to 10 mM with respect to phospholipids and assayed for total phosphorous.
Male BALB/c mice, 6-8 weeks old, are bled and then immunized with 0.1 ml liposomes containing 1 μmol total phospholipid and 25-200 μg monophosphoryl lipid A ip. At 14 day intervals, mice are bled and sera collected. […]

A short description of data set [2]: Complement-dependent immune lysis assay of antisera (glucose release from liposomes). The arrangement: species or system BALB/c mice. The procedure: This assay measures antibody-mediated, complement-dependent release of encapsulated glucose from liposomes. Released glucose is measured spectrophotometrically using a Tris-buffered assay reagent containing hexokinase, glucose-6-phosphate dehydrogenase, ATP, and NADP. This particular assay is a measurement of antibody functional activity, rather than particle (antibody) detection.
In addition, the antisera from mice vaccinated with phosphatidylcholesterol could detect cholesterol present in liposomes containing 43% cholesterol as well as 71% cholesterol, and were equally as active against liposomes containing phosphatidylcholesterol in a complement-dependent immune lysis assay. […] In the above antibody-dependent immune lysis assays, a release greater than 5% indicates a positive reaction.
The test liposomes contained or lacked 5 mol % phosphatidylcholesterol. The antisera were tested using a complement-dependent immune lysis assay, wherein a release greater than 5% indicated a positive reaction.

The values below come from patent publication US20020018808A1, “Vaccines against sterols” (priority 1990, published 2002).

Molecules are shown by their SMILES.

Regarding `CC(C)CCC[C@@H](C)[C@H]1CC[C@H]2[C@@H]3CC=C4C[C@@H](O)CC[C@]4(C)[C@H]3CC[C@]12C` [cholesterol], in data set [1] (mice, detected by ELISA (FIG. 8)), the Antibody isotype induced result is given as “induce primarily IgM”.

On to `CCCCCCCCCCCCCC(=O)OCC(COP(=O)(O)OCCNC(=O)[C@H]1CC[C@H]2[C@@H]3CC=C4C[C@@H](O)CC[C@]4(C)[C@H]3CC[C@]12C)OC(=O)CCCCCCCCCCCCC` (stereo partly drawn) [phosphatidylcholesterol (17β-Linkage), N-(5-Androsten-3β-OL-17β-amido) dimyristoylphosphatidylethanolamine], for which the “Glucose release of test liposomes” value in data set [2] (immune lysis assay, liposomes composed of 5% phosphatidylcholesterol (17β-Linkage)) was “glucose release equivalent to liposomes containing 43% and 71% cholesterol”. Further, the “Liposome integrity in antibody-mediated immune lysis assay” value in data set [2] (more than 5 mol % phosphatidylcholesterol in liposomes containing 43 mol % cholesterol) was “leaky liposomes”. For the same compound, the “Reactivity of generated antibody” value in data set [1] (compound of Example VI in liposomes) is “IgG antibody that reacts with crystalline cholesterol, 43% cholesterol liposomes, and 71% liposomes”.
